The subject of one assay is E. tarda. The assay can be described thus: Intestinal E. tarda mCherry accumulation in zebrafish treated with AhR inhibitors. In kind it is in vivo. The note with it: AhR inhibitor 1 μM or folic acid 10 μM, 3 dpf to 6 dpf. The procedure: For E. tarda colonization experiments, fertilized zebrafish eggs were collected, sorted and transferred into a cell culture flask containing 80 mL GZM at 0 dpf. At 3 dpf, dead embryos and 60 mL GZM were removed and replaced with 50 mL fresh GZM in each flask. To facilitate consistent commensal gut bacterial colonization, an additional 10 mL of filtered system water (5 μm filter, SLSV025LS, Millipore) were added to each flask. Overnight E. tarda mCherry culture was harvested, washed three times with GZM. 150 μL of GZM-washed E. tarda mCherry culture were inoculated into each flask. The E. tarda concentration is ˜10^6 CFU/ml. […] At 6 dpf, zebrafish larvae were subjected to fluorescence imaging analysis or CFU quantification. For fluorescence imaging analysis, zebrafish larvae were anesthetized with Tricaine ([…]), mounted in 3% methylcellulose and imaged with a Leica M205 FA upright fluorescence stereomicroscope equipped with a Leica DFC 365FX camera. For CFU quantification, digestive tracts were dissected and transferred into 1 mL sterile PBS which was then mechanically disassociated using a Tissue-Tearor (BioSpec Products, 985370). […] The mCherry+ colonies were quantified from each plate and E. tarda colony forming units (CFUs) per fish were calculated. […]

The subject of the next assay is intestinal motility. The assay can be described thus: Zebrafish intestinal motility (PIV-Lab velocity analysis). In kind it is in vivo. To be noted: AhR inhibitor 10 μM or folic acid 10 μM for 2 hours.
The subject of a further assay is AhR signaling. The note with it: 0.05 μM; cited from earlier work.
In another assay the target is T1, AhR (Homo sapiens, UniProt P35869).
T1 sequence (P35869 11-848): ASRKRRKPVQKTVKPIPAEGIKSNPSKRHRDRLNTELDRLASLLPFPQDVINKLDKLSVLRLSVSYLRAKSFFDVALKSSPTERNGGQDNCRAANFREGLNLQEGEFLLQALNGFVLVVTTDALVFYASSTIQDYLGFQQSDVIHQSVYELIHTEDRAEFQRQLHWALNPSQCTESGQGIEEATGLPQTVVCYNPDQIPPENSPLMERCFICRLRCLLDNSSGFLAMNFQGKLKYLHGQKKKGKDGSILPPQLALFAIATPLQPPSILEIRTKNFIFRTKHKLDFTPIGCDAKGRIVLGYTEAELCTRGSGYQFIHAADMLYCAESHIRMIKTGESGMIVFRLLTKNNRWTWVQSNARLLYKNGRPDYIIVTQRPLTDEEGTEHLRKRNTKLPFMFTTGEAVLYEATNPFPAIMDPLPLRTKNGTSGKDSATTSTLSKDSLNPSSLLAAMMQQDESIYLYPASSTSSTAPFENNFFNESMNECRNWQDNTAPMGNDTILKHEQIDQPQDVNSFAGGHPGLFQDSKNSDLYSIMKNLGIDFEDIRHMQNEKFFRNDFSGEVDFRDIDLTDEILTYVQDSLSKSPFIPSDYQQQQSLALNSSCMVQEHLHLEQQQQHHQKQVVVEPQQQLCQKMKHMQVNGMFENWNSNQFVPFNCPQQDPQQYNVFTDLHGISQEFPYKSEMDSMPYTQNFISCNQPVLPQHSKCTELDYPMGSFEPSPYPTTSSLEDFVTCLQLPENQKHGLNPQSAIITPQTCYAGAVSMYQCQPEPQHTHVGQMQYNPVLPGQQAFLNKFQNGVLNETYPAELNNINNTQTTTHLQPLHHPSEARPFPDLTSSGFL
The note with it: Kim et al., 2020; cited from earlier work.

Protocol for intestinal motility: For EEC Trpa1 activation using the Optovin platform, zebrafish larvae were treated with 10 μM Optovin overnight. Following Optovin treatment, unanesthetized zebrafish were mounted in 1% LMA and imaged under a 780 upright Zeiss confocal microscope using 20× water objective lenses. For all the experiments, the mid-intestine region was imaged (FIG. 10D). The intestinal epithelium was selected as the region of interest (ROI) (FIG. 10A). Serial images were obtained at 1 s/frame. A 405 nm pulse of light was applied to the ROI at 1 pulse/10 s. For some experiments (FIG. 7D-F, FIG. 10B-G), the images were obtained at 10 s/frame.
The zebrafish intestinal motility is quantified through recorded image series of zebrafish intestine using the method similar as previously described (Ganz et al., 2018). Intestinal p velocity and v velocity were used to estimate intestinal motility in zebrafish as previously described using the PIV-Lab MATLAB app (Ganz et al., 2018). A positive value of the μ velocity indicates an anterograde intestinal movement and a negative value of the μ velocity indicates a retrograde intestinal movement. The time-course p velocity number is plotted as heatmaps. When calculating the mean velocity, only the mean velocity magnitude was calculated, which therefore doesn't account for the movement direction. The MTrackJ FIJI plugin was used to quantify the mean velocity magnitude (Meijering et al., 2012).

Turning to `Nc1nc2ncc(CNc3ccc(C(=O)N[C@@H](CCC(=O)O)C(=O)O)cc3)nc2c(=O)[nH]1` [Folic acid], the “Effect on E. tarda intestinal accumulation” value in the assay on E. tarda was “insufficient to block”. Besides, in the assay on intestinal motility, the “Effect on Optovin-UV induced intestinal motility change” value is given as “insufficient to block”. Also, the “Inhibition of AhR signaling in early zebrafish embryos” value with AhR signaling was “inhibits”. In addition, the “Concentration at which it acts as a competitive AhR antagonist (as low as)” value at AhR was 10 ng/mL.

The values above are taken from patent US20230149355A1, “COMPOSITIONS AND METHODS FOR MODULATING TRP CHANNEL ACTIVITY” (priority 2020, published 2023).
